PubChem BioAssay AID1963424 (Molecular Pharmacology Branch, DTP, NCI, 2024)
Where “and” joins values, the source holds several entries; their conditions need not be identical. Equal values may be shown once.

Test system: 327498-153-R-J2-PDC complex spheroid growth, % test/control
Experiment: Anticancer human tumor 327498-153-R-J2-PDC patient-derived uterine carcinosarcoma cell line growth inhibition [Asc]
Conditions: for viability, T/C: stronger effect = lower value
Procedure: Multicellular complex tumor spheroid response to apoptosis pathway targeting inhibitors Alrizomadlin, Pelcitoclax, and Dasminapant in combination with a variety of drugs and investigational agents in selected tumor cell lines
The MDM2 inhibitor alrizomadlin, the Bcl-2/Bcl-xL inhibitor pelcitoclax, and the IAPs inhibitor dasminapant were evaluated both individually and in combination with standard of care and investigational anticancer small molecules within a complex spheroid model of solid tumors. . Complex spheroids include a stromal component modeled by human endothelial cells (HUVEC) and fibroblasts modeled by human mesenchymal stem cells (MSCs). The concentration ranges selected for each drug and investigational agent were based upon clinically achievable concentrations if the clinical Cmax of the agent was known.
Compounds. The drugs and investigational agents: alrizomadlin (APG-115; NSC831270), pelcitoclax (APG-1252; NSC835773), dasminapant (APG-1387;NSC834197), TAK-243 (NSC785004), copanlisib (NSC809693), olaparib (NSC753686), talazoparib (NSC767125), cobimetinib (NSC 768068), eltanexor (KPT-8602, NSC 794443), abemaciclib (NSC 768073), sotorasib (NSC818433), adagrasib (NSC 831453), MRTX-1133 (NSC 836407), Iadademestat (ORY1001, NSC 806812), and RMC-4630 (NSC839698), were obtained from the NCI Developmental Therapeutics Program Chemical Repository. The FDA-approved anticancer drug set is available from the Developmental Therapeutics Program at https://dtp.cancer.gov/organization/dscb/obtaining/available plates.htm. […] The stock solutions were prepared in dimethyl sulfoxide (DMSO, Sigma-Aldrich, St. Louis, MO, cat. D2650) at 800-fold the tested concentration and stored at -70 degrees C prior to their use. All drugs and investigational agents were tested over a range starting from a high concentration at or near the clinical Cmax and decreasing in half-log increments. If the clinical Cmax for an agent had not been determined, the highest concentration tested was 10 microM.
The patient-derived cancer (PDC) cell lines include five colon adenocarcinomas: 186277-243-T-J2-PDC, 616215-338-R-J1-PDC, 439559-082-T-J2-PDC, 463943-066-T-J2-PDC, and 519858-162-T-J1-PDC; three pancreatic carcinomas: 323965-272-R-J2-PDC, 521955-158-R6-J3-PDC, and 521955-158-R2-J5-PDC; two uterine sarcomas: 327498-152-R-J2-PDC and 993429-296-R-J1-PDC; two rhabdomyosarcomas: 755483-174-R-J1-PDC and 772245-204-R-J1-PDC; two soft tissue sarcomas: 126254-015-R-J1-PDC and 494315-158-R-J1-PDC; two malignant fibrous histiocytomas: 317291-083-R-J1-PDC and 596521-263-R-J1-PDC; two breast carcinomas: 171881-019-R-J1-PDC and 885512-296-R-J2-PDC; and one ovarian carcinoma: 6556581-035-R-J-PDC were obtained from the NCI PDMR, (https://pdmr.cancer.gov). The established cell lines HSSY-2 synovial sarcoma (RRID:CVCL 8719), SYO-1 synovial sarcoma (RRID:CVCL_7146), MPNST malignant peripheral neural sheath tumor were obtained from the Sloan Kettering Institute. The following established cell lines were purchased from the American Type Culture Collection (ATCC, Manassas, VA), Sor the received from the NCI repository:, PANC-1 pancreatic carcinoma (CRL-1469, RRID:CVCL_0480), OVCAR-5 ovarian carcinoma (RRID:CVCL_1628), OVCAR-8 ovarian carcinoma (RRID:CVCL_1629), , MCF-7 breast carcinoma (CRL-12584, RRID:CVCL_0031), MDA-MB-231 breast carcinoma (CRL-12532, RRID:CVCL_0062), NCI-H1876 small cell lung carcinoma (CRL-5902, RRID:CVCL_1503), NCI-H510A small cell lung carcinoma (HTB-184, RRID:CVCL_1565), NCI-H1417 (CRL-5869, RRID:CVCL_1469), and NCI-H196 small cell lung carcinoma (CRL-5823, RRID:CVCL_1509). Dr. Peter Houghton (Greehey Children's Cancer Research Institute, University of Texas Health Science Center, San Antonio, TX) provided Rh-18 rhabdomyosarcoma (RRID:CVCL_1659). Pooled donor human umbilical vein endothelial cells (HUVEC, Lonza, cat. CC-2519) and human mesenchymal stem cells (hMSC, Lonza, cat. PT-2501) were purchased from Lonza (Walkersville, MD).
Cell Culture. […]

[1] = compound alone, run of 09/27/2022
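Further: spheroids exposed to compound for 7 days after 3 days of growth.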
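Wherever viability, T/C is given: 100% = DMSO vehicle control wells.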

SMILES | IC50 (curve of compound) | viability, T/C (compound 0.0316 µM) | viability, T/C (compound 0.1 µM) | viability, T/C (compound 0.316 µM) | viability, T/C (compound 1 µM) | viability, T/C (compound 3.16 µM) | viability, T/C (compound 10 µM) | viability, T/C (compound 0.00316 µM) | viability, T/C (compound 0.01 µM) | other results
CCN1CCN(Cc2ccc(Nc3ncc(F)c(-c4cc(F)c5nc(C)n(C(C)C)c5c4)n3)nc2)CC1 | > 1000 nM | 78% and 88.9% and 94.2% | 73.7% and 77.4% and 81.4% | 70.5% and 69.2% and 73.2% | 63.1% and 63.3% and 75.3% |  |  | 95% and 98.3% and 99.9% | 82.9% and 85.2% and 108% | 
Cc1c(S(C)(=O)=O)c(-c2cc(F)cc(N3CCN(c4ccc(NS(=O)(=O)c5ccc(NC(CCN6CCC(C(=O)OCCCP(=O)(O)O)CC6)CSc6ccccc6)c(S(=O)(=O)C(F)(F)F)c5)cc4)CC3)c2)c(-c2ccc(Cl)cc2)n1C(C)C (centres undefined) |  |  | 94.6% [middle of 14 runs] | 96.1% [middle of 14 runs] | 94.4% [middle of 14 runs] | 90.3% [middle of 14 runs] | 166% [middle of 14 runs] |  |  | IC50 [1]: > 10000 nM
Cc1nc(N2CCC3(CC2)COC(C)C3N)c(CO)nc1Sc1ccnc(N)c1Cl (centres undefined) | > 3000 nM and 1400 nM |  |  |  |  |  |  |  |  | viability, T/C (compound 0.00949 µM): 98.2% and 101% and 93%; viability, T/C (compound 0.03 µM): 94% and 88.4% and 87.5%; viability, T/C (compound 0.0949 µM): 86.9% and 73.2% and 77%; viability, T/C (compound 0.3 µM): 76.2% and 64.7% and 71.6%; viability, T/C (compound 0.949 µM): 65.4% and 58.5% and 56.2%; viability, T/C (compound 3 µM): 49.8% and 40.1% and 52.5%
Cn1ncnc1[C@H]1c2n[nH]c(=O)c3cc(F)cc(c23)N[C@@H]1c1ccc(F)cc1 | 15.1 nM and 20.5 nM and 15.8 nM | 28.1% and 33.8% and 26.1% | 12.9% and 16.1% and 13.9% |  |  |  |  | 88.7% and 110% and 91.1% | 61.8% and 77.4% and 65.8% | viability, T/C (compound 0.000316 µM): 95.8% and 103% and 101%; viability, T/C (compound 0.001 µM): 93.7% and 105% and 94%
NC(=O)C(=Cn1cnc(-c2cc(C(F)(F)F)cc(C(F)(F)F)c2)n1)c1cncnc1 | 45.9 nM and 40.1 nM and 50.9 nM |  |  |  |  |  |  |  |  | viability, T/C (compound 0.000949 µM): 89.1% and 91.1% and 101%; viability, T/C (compound 0.003 µM): 102% and 93.5% and 96.2%; viability, T/C (compound 0.00949 µM): 83.6% and 84.6% and 93.2%; viability, T/C (compound 0.03 µM): 71.5% and 61.5% and 78%; viability, T/C (compound 0.0949 µM): 14.8% and 17.4% and 17.2%; viability, T/C (compound 0.3 µM): 3.13% and 3.94%
NC1CCC(NC2CC2c2ccccc2)CC1 (centres undefined) | > 100 nM | 96.4% and 105% and 96.6% | 89.5% and 98.1% and 92.1% |  |  |  |  | 104% and 101% and 98.6% | 96.9% and 103% and 106% | viability, T/C (compound 0.000316 µM): 101% and 116% and 107%; viability, T/C (compound 0.001 µM): 97.7% and 101% and 104%

Further lines, with some results ahead:

IC50 (curve of compound) | SMILES | viability, T/C (compound 0.0316 µM) | viability, T/C (compound 0.1 µM) | viability, T/C (compound 0.316 µM) | viability, T/C (compound 1 µM) | viability, T/C (compound 3.16 µM) | viability, T/C (compound 10 µM) | viability, T/C (compound 0.00316 µM) | viability, T/C (compound 0.01 µM) | other results
> 10000 nM and 8780 nM | C#Cc1c(F)ccc2cc(O)cc(-c3ncc4c(N5CC6CCC(C5)N6)nc(OCC56CCCN5CC(F)C6)nc4c3F)c12 (centres undefined) | 108% and 96.6% and 89.6% | 101% and 100% and 94% | 101% and 82.7% and 90.7% | 82.9% and 72.4% and 78.3% | 69.9% and 64.9% and 68.1% | 58% and 47.4% and 53.3% |  |  | 
654 nM and 1240 nM and 1270 nM | C=C(F)C(=O)N1CCN(c2nc(OCC3CCCN3C)nc3c2CCN(c2cccc4cccc(Cl)c24)C3)CC1CC#N (centres undefined) | 68.8% and 82.4% and 85% | 61.8% and 69.6% and 74.7% | 56.1% and 67.6% and 66% | 48.2% and 59.2% and 62.2% | 19.4% and 14.3% and 24.8% | 0.22% and 0.23% and 0.25% |  |  | 
> 10000 nM | C=CC(=O)N1CCN(c2nc(=O)n(-c3c(C)ccnc3C(C)C)c3nc(-c4c(O)cccc4F)c(F)cc23)C(C)C1 (centres undefined) | 79% and 84.1% and 96.8% | 81.7% and 85.2% and 87.5% | 63.5% and 71.4% and 76% | 71.2% and 69.4% and 84.9% | 66.3% and 67.2% and 77.7% | 60.9% and 59.4% and 66% |  |  | 
174 nM and 252 nM | CCN1C(C(=O)NC23CCC(C(=O)O)(CC2)CC3)C(c2cccc(Cl)c2F)C2(C(=O)Nc3cc(Cl)ccc32)C12CCCCC2 (centres undefined) |  |  |  |  |  |  |  |  | viability, T/C (compound 0.00949 µM): 90.4% and 97.6%; viability, T/C (compound 0.03 µM): 88.7% [middle of 15 runs]; viability, T/C (compound 0.0949 µM): 74.7% [middle of 15 runs]; viability, T/C (compound 0.3 µM): 40.5% [middle of 15 runs]; viability, T/C (compound 0.949 µM): 11.1% [middle of 15 runs]; viability, T/C (compound 3 µM): 4% [middle of 15 runs]; IC50 [1]: 211 nM [middle of 13 runs]
> 1000 nM | CNC(C)C(=O)NC1CN(S(=O)(=O)c2cccc(S(=O)(=O)N3CCC4CCC(C(=O)NC(c5ccccc5)c5ccccc5)N4C(=O)C(NC(=O)C(C)NC)C3)c2)CCC2CCC(C(=O)NC(c3ccccc3)c3ccccc3)N2C1=O (centres undefined) | 98.1% [middle of 15 runs] | 99.2% [middle of 15 runs] | 99.9% [middle of 15 runs] | 96.2% [middle of 15 runs] |  |  | 95.8% and 104% | 96.8% [middle of 15 runs] | IC50 (compound alone, run of 10/03/2022): > 1000 nM
99.9 nM and 131 nM and 140 nM | COc1c(OCCCN2CCOCC2)ccc2c3n(c(=NC(=O)c4cnc(N)nc4)nc12)CCN3 | 71.2% and 78.3% and 85.6% | 51.4% and 57.8% and 60.5% | 23.9% and 27.6% and 26.7% | 6.91% and 7.65% and 9.2% |  |  | 93.8% and 96.5% and 105% | 92% and 91.4% and 97.5% | 
4010 nM and 5010 nM and 5130 nM | O=C(c1cc(Cc2n[nH]c(=O)c3ccccc23)ccc1F)N1CCN(C(=O)C2CC2)CC1 | 86.5% and 104% and 109% | 89.6% and 99.6% and 105% | 92.9% and 93.8% and 98% | 78.8% and 89.2% and 93.4% | 58.8% and 71.2% and 71.8% | 18.3% and 19.8% and 20.8% |  |  | 
456 nM and 339 nM and 455 nM | O=C(c1ccc(F)c(F)c1Nc1ccc(I)cc1F)N1CC(O)([C@@H]2CCCCN2)C1 | 88.3% and 78.5% and 90.8% | 81% and 66.6% and 80.8% | 60.5% and 59.8% and 60.2% | 27.1% and 21.9% and 27.9% |  |  | 96.9% and 101% and 95.2% | 96.2% and 95.5% and 92.5% | 
